Common to all, as to type: functional
Test [1] concerns Enterococcus faecium. The experiment in a line: Antibacterial activity against glycopeptide-resistant Enterococcus faecium Efm-HS-0649 assessed as reduction in microbial growth incubated for 24 hrs by broth microdilution method.
In test [2] the test system is Staphylococcus aureus. Description: Antibacterial activity against methicillin-susceptible Staphylococcus aureus Newman ATCC 25904 assessed as reduction in microbial growth incubated for 24 hrs by broth microdilution method.
Test [3] deals with Staphylococcus aureus. Description: Antibacterial activity against vancomycin-intermediate resistant Staphylococcus aureus Mu 50 assessed as reduction in microbial growth incubated for 24 hrs by broth microdilution method.
Test [4] deals with Staphylococcus aureus. Description: Antibacterial activity against methicillin-resistant Staphylococcus aureus USA300 assessed as reduction in microbial growth incubated for 24 hrs by broth microdilution method.
For test [5], the system named is Staphylococcus aureus. Description: Potency index, ratio of daptomycin MIC to test compound MIC for antibacterial activity against methicillin-susceptible Staphylococcus aureus Newman ATCC 25904.
The test system of test [6] is Enterococcus faecium. The experiment in a line: Potency index, ratio of daptomycin MIC to test compound MIC for antibacterial activity against glycopeptide-resistant Enterococcus faecium Efm-HS-0649.

The values below come from ChEMBL document CHEMBL5625187, “A facile and selective derivatization approach on kynurenine-NH2 in daptomycin, leading to the discovery of hexakynomycin to combat multidrug-resistant Gram-positive pathogens especially daptomycin-resistant bacteria” (Eur J Med Chem, 2023).

As to `CCCCCCCCCC(=O)N[C@@H](Cc1c[nH]c2ccccc12)C(=O)N[C@H](CC(N)=O)C(=O)N[C@@H](CC(=O)O)C(=O)N[C@@H]1C(=O)NCC(=O)N[C@@H](CCCN)C(=O)N[C@@H](CC(=O)O)C(=O)N[C@H](C)C(=O)N[C@@H](CC(=O)O)C(=O)NCC(=O)N[C@H](CO)C(=O)N[C@@H]([C@H](C)CC(=O)O)C(=O)N[C@@H](CC(=O)c2ccccc2NCC2CCCCC2)C(=O)O[C@@H]1C` (single isomer, unassigned), the MIC with Enterococcus faecium [1] was 1 µg/mL; with Staphylococcus aureus [2], 1 µg/mL; in the test on Staphylococcus aureus [3] it was 4 µg/mL; with Staphylococcus aureus [4] it was 0.5 µg/mL.

As to `CCCCCCCCCC(=O)N[C@@H](Cc1c[nH]c2ccccc12)C(=O)N[C@H](CC(N)=O)C(=O)N[C@@H](CC(=O)O)C(=O)N[C@@H]1C(=O)NCC(=O)N[C@@H](CCCN)C(=O)N[C@@H](CC(=O)O)C(=O)N[C@H](C)C(=O)N[C@@H](CC(=O)O)C(=O)NCC(=O)N[C@H](CO)C(=O)N[C@@H]([C@H](C)CC(=O)O)C(=O)N[C@@H](CC(=O)c2ccccc2NCCC2C(=O)C=CC2=O)C(=O)O[C@@H]1C` (single isomer, unassigned), the minimum inhibitory concentration (MIC) was 128 µg/mL in the test on Enterococcus faecium [1], 128 µg/mL in the test on Staphylococcus aureus [2], more than 128 µg/mL with Staphylococcus aureus [3] and 128 µg/mL with Staphylococcus aureus [4].

Take `CCCCCCCCCCNc1ccccc1C(=O)C[C@@H]1NC(=O)[C@H]([C@H](C)CC(=O)O)NC(=O)[C@@H](CO)NC(=O)CNC(=O)[C@H](CC(=O)O)NC(=O)[C@@H](C)NC(=O)[C@H](CC(=O)O)NC(=O)[C@H](CCCN)NC(=O)CNC(=O)[C@@H](NC(=O)[C@H](CC(=O)O)NC(=O)[C@@H](CC(N)=O)NC(=O)[C@H](Cc2c[nH]c3ccccc23)NC(=O)CCCCCCCCC)[C@@H](C)OC1=O` (single isomer, unassigned): the minimal inhibitory concentration (MIC) in the test with Enterococcus faecium [1] was determined as 2 µg/mL; with Staphylococcus aureus [2], 2 µg/mL; with Staphylococcus aureus [3], 4 µg/mL; with Staphylococcus aureus [4], 2 µg/mL. Also, the Ratio in the test on Staphylococcus aureus [5] and in the test on Enterococcus faecium [6] was 2 in each case.

Regarding `CCCCCCCCCC(=O)N[C@@H](Cc1c[nH]c2ccccc12)C(=O)N[C@H](CC(N)=O)C(=O)N[C@@H](CC(=O)O)C(=O)N[C@@H]1C(=O)NCC(=O)N[C@@H](CCCN)C(=O)N[C@@H](CC(=O)O)C(=O)N[C@H](C)C(=O)N[C@@H](CC(=O)O)C(=O)NCC(=O)N[C@H](CO)C(=O)N[C@@H]([C@H](C)CC(=O)O)C(=O)N[C@@H](CC(=O)c2ccccc2NC)C(=O)O[C@@H]1C`, the MIC in the test with Enterococcus faecium [1] is 4 µg/mL; with Staphylococcus aureus [2], 1 µg/mL; in the test with Staphylococcus aureus [3], 4 µg/mL; in the test on Staphylococcus aureus [4] it was 1 µg/mL. The Ratio with Staphylococcus aureus [5] and with Enterococcus faecium [6] was 2 each time.

For the molecule `CCCCCCCCCC(=O)N[C@@H](Cc1c[nH]c2ccccc12)C(=O)N[C@H](CC(N)=O)C(=O)N[C@@H](CC(=O)O)C(=O)N[C@@H]1C(=O)NCC(=O)N[C@@H](CCCN)C(=O)N[C@@H](CC(=O)O)C(=O)N[C@H](C)C(=O)N[C@@H](CC(=O)O)C(=O)NCC(=O)N[C@H](CO)C(=O)N[C@@H]([C@H](C)CC(=O)O)C(=O)N[C@@H](CC(=O)c2ccccc2NCCCCCCCC)C(=O)O[C@@H]1C` (single isomer, unassigned), the minimal inhibitory concentration (MIC) in the test with Enterococcus faecium [1] was found to be 0.5 µg/mL; in the test with Staphylococcus aureus [2] it was 1 µg/mL; in the test with Staphylococcus aureus [3], 4 µg/mL; with Staphylococcus aureus [4], 1 µg/mL. In addition, the Ratio in the test with Staphylococcus aureus [5] and in the test on Enterococcus faecium [6] was 2 throughout.

Consider `CCCCCCCCCNc1ccccc1C(=O)C[C@@H]1NC(=O)[C@H]([C@H](C)CC(=O)O)NC(=O)[C@@H](CO)NC(=O)CNC(=O)[C@H](CC(=O)O)NC(=O)[C@@H](C)NC(=O)[C@H](CC(=O)O)NC(=O)[C@H](CCCN)NC(=O)CNC(=O)[C@@H](NC(=O)[C@H](CC(=O)O)NC(=O)[C@@H](CC(N)=O)NC(=O)[C@H](Cc2c[nH]c3ccccc23)NC(=O)CCCCCCCCC)[C@@H](C)OC1=O` (single isomer, unassigned), for which the minimal inhibitory concentration (MIC) with Enterococcus faecium [1] was found to be 1 µg/mL; in the test on Staphylococcus aureus [2] it was 2 µg/mL; with Staphylococcus aureus [3], 4 µg/mL; with Staphylococcus aureus [4], 1 µg/mL. The Ratio with Staphylococcus aureus [5] and in the test on Enterococcus faecium [6] was 2 throughout.

As to `CCCCCCCCCC(=O)N[C@@H](Cc1c[nH]c2ccccc12)C(=O)N[C@H](CC(N)=O)C(=O)N[C@@H](CC(=O)O)C(=O)N[C@@H]1C(=O)NCC(=O)N[C@@H](CCCN)C(=O)N[C@@H](CC(=O)O)C(=O)N[C@H](C)C(=O)N[C@@H](CC(=O)O)C(=O)NCC(=O)N[C@H](CO)C(=O)N[C@@H]([C@H](C)CC(=O)O)C(=O)N[C@@H](CC(=O)c2ccccc2NCC(=O)O)C(=O)O[C@@H]1C`, the MIC worked out at 128 µg/mL with Enterococcus faecium [1], 32 µg/mL with Staphylococcus aureus [2], 128 µg/mL with Staphylococcus aureus [3] and 32 µg/mL in the test with Staphylococcus aureus [4].

Consider `CCCCCCCCCC(=O)N[C@@H](Cc1c[nH]c2ccccc12)C(=O)N[C@H](CC(N)=O)C(=O)N[C@@H](CC(=O)O)C(=O)N[C@@H]1C(=O)NCC(=O)N[C@@H](CCCN)C(=O)N[C@@H](CC(=O)O)C(=O)N[C@H](C)C(=O)N[C@@H](CC(=O)O)C(=O)NCC(=O)N[C@H](CO)C(=O)N[C@@H]([C@H](C)CC(=O)O)C(=O)N[C@@H](CC(=O)c2ccccc2NCCC[S+](C)CC(O)CC)C(=O)O[C@@H]1C` (single isomer, unassigned), for which the minimum inhibitory concentration (MIC) in the test on Enterococcus faecium [1], in the test on Staphylococcus aureus [2], with Staphylococcus aureus [3] and in the test on Staphylococcus aureus [4] was more than 128 µg/mL throughout.

As to `CCCCCCCCCC(=O)N[C@@H](Cc1c[nH]c2ccccc12)C(=O)N[C@H](CC(N)=O)C(=O)N[C@@H](CC(=O)O)C(=O)N[C@@H]1C(=O)NCC(=O)N[C@@H](CCCN)C(=O)N[C@@H](CC(=O)O)C(=O)N[C@H](C)C(=O)N[C@@H](CC(=O)O)C(=O)NCC(=O)N[C@H](CO)C(=O)N[C@@H]([C@H](C)CC(=O)O)C(=O)N[C@@H](CC(=O)c2ccccc2NCCCCC)C(=O)O[C@@H]1C` (single isomer, unassigned), the MIC is 0.5 µg/mL in the test with Enterococcus faecium [1], 0.5 µg/mL in the test with Staphylococcus aureus [2], 2 µg/mL in the test with Staphylococcus aureus [3] and 0.125 µg/mL in the test on Staphylococcus aureus [4]. Besides, the Ratio in the test with Staphylococcus aureus [5] and in the test on Enterococcus faecium [6] was 2 in each case.

As for `CCCCCCCCCC(=O)N[C@@H](Cc1c[nH]c2ccccc12)C(=O)N[C@H](CC(N)=O)C(=O)N[C@@H](CC(=O)O)C(=O)N[C@@H]1C(=O)NCC(=O)N[C@@H](CCCN)C(=O)N[C@@H](CC(=O)O)C(=O)N[C@H](C)C(=O)N[C@@H](CC(=O)O)C(=O)NCC(=O)N[C@H](CO)C(=O)N[C@@H]([C@H](C)CC(=O)O)C(=O)N[C@@H](CC(=O)c2ccccc2NCC)C(=O)O[C@@H]1C` (single isomer, unassigned), the minimal inhibitory concentration (MIC) with Enterococcus faecium [1] came out at 1 µg/mL; in the test on Staphylococcus aureus [2], 1 µg/mL; in the test with Staphylococcus aureus [3], 4 µg/mL; with Staphylococcus aureus [4], 1 µg/mL. The Ratio in the test on Staphylococcus aureus [5] and with Enterococcus faecium [6] was 2 each time.

As to `CCCCCCCCCC(=O)N[C@@H](Cc1c[nH]c2ccccc12)C(=O)N[C@H](CC(N)=O)C(=O)N[C@@H](CC(=O)O)C(=O)N[C@@H]1C(=O)NCC(=O)N[C@@H](CCCN)C(=O)N[C@@H](CC(=O)O)C(=O)N[C@H](C)C(=O)N[C@@H](CC(=O)O)C(=O)NCC(=O)N[C@H](CO)C(=O)N[C@@H]([C@H](C)CC(=O)O)C(=O)N[C@@H](CC(=O)c2ccccc2NCc2ccc3c(c2)CCO3)C(=O)O[C@@H]1C`, the minimum inhibitory concentration (MIC) was 2 µg/mL in the test with Enterococcus faecium [1], 1 µg/mL in the test on Staphylococcus aureus [2], 4 µg/mL in the test on Staphylococcus aureus [3] and 1 µg/mL in the test with Staphylococcus aureus [4].

Take `C#CC[S+](C)CCCNc1ccccc1C(=O)C[C@@H]1NC(=O)[C@H]([C@H](C)CC(=O)O)NC(=O)[C@@H](CO)NC(=O)CNC(=O)[C@H](CC(=O)O)NC(=O)[C@@H](C)NC(=O)[C@H](CC(=O)O)NC(=O)[C@H](CCCN)NC(=O)CNC(=O)[C@@H](NC(=O)[C@H](CC(=O)O)NC(=O)[C@@H](CC(N)=O)NC(=O)[C@H](Cc2c[nH]c3ccccc23)NC(=O)CCCCCCCCC)[C@@H](C)OC1=O` (some centres undefined): the minimal inhibitory concentration (MIC) was 128 µg/mL in the test with Enterococcus faecium [1], 128 µg/mL in the test with Staphylococcus aureus [2], more than 128 µg/mL in the test on Staphylococcus aureus [3] and 128 µg/mL with Staphylococcus aureus [4].

As to `CCCCCCCCCC(=O)N[C@@H](Cc1c[nH]c2ccccc12)C(=O)N[C@H](CC(N)=O)C(=O)N[C@@H](CC(=O)O)C(=O)N[C@@H]1C(=O)NCC(=O)N[C@@H](CCCN)C(=O)N[C@@H](CC(=O)O)C(=O)N[C@H](C)C(=O)N[C@@H](CC(=O)O)C(=O)NCC(=O)N[C@H](CO)C(=O)N[C@@H]([C@H](C)CC(=O)O)C(=O)N[C@@H](CC(=O)c2ccccc2NCCCC)C(=O)O[C@@H]1C` (single isomer, unassigned), the minimum inhibitory concentration (MIC) with Enterococcus faecium [1] came to 1 µg/mL; in the test on Staphylococcus aureus [2], 0.5 µg/mL; in the test on Staphylococcus aureus [3] it was 4 µg/mL; with Staphylococcus aureus [4], 0.5 µg/mL. Also, the Ratio with Staphylococcus aureus [5] and in the test with Enterococcus faecium [6] was 2 each time.

Regarding `CCCCCCCCCC(=O)N[C@@H](Cc1c[nH]c2ccccc12)C(=O)N[C@H](CC(N)=O)C(=O)N[C@@H](CC(=O)O)C(=O)N[C@@H]1C(=O)NCC(=O)N[C@@H](CCCN)C(=O)N[C@@H](CC(=O)O)C(=O)N[C@H](C)C(=O)N[C@@H](CC(=O)O)C(=O)NCC(=O)N[C@H](CO)C(=O)N[C@@H]([C@H](C)CC(=O)O)C(=O)N[C@@H](CC(=O)c2ccccc2NCCC[S+](C)[O-])C(=O)O[C@@H]1C` (some centres undefined), the minimal inhibitory concentration (MIC) with Enterococcus faecium [1] is 128 µg/mL; with Staphylococcus aureus [2], 128 µg/mL; in the test on Staphylococcus aureus [3], more than 128 µg/mL; in the test on Staphylococcus aureus [4], 128 µg/mL.

Turning to `CCCCCCCCCC(=O)N[C@@H](Cc1c[nH]c2ccccc12)C(=O)N[C@H](CC(N)=O)C(=O)N[C@@H](CC(=O)O)C(=O)N[C@@H]1C(=O)NCC(=O)N[C@@H](CCCN)C(=O)N[C@@H](CC(=O)O)C(=O)N[C@H](C)C(=O)N[C@@H](CC(=O)O)C(=O)NCC(=O)N[C@H](CO)C(=O)N[C@@H]([C@H](C)CC(=O)O)C(=O)N[C@@H](CC(=O)c2ccccc2NCCCSC)C(=O)O[C@@H]1C` (single isomer, unassigned), the minimal inhibitory concentration (MIC) came out at 1 µg/mL in the test with Enterococcus faecium [1], 1 µg/mL with Staphylococcus aureus [2], 4 µg/mL in the test on Staphylococcus aureus [3] and 0.5 µg/mL in the test on Staphylococcus aureus [4].
